PubChem BioAssay AID1918953 (Molecular Pharmacology Branch, DTP, NCI, 2023)

Test system: MDA-MB-231 complex spheroid viability
Assay: Anticancer human tumor MDA-MB-231/ATCC cell line growth inhibition;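 further: drug exposure lasted 7 days starting on day 3 of spheroid growth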
Conditions: for IC50: curve of first compound; for viability, T/C: stronger effect = lower value
Method in brief: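 Multicellular complex spheroids of tumor cells with human endothelial cells (HUVEC) and mesenchymal stem cells; the LSD1 inhibitor iadademstat was combined with standard-of-care or investigational agents. Top concentration at or near clinical Cmax, half-log dilutions; final DMSO ≤0.25%.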

[1] = second compound 0.1 µM, first compound 0.00316 µM
[2] = second compound 0.1 µM, first compound 0.01 µM
[3] = second compound 0.1 µM, first compound 0.0316 µM
[4] = second compound 0.1 µM, first compound 0.1 µM
[5] = second compound 0.1 µM, first compound 0.316 µM
[6] = second compound 0.1 µM, first compound 1 µM
[7] = second compound 0.316 µM, first compound 0.00316 µM
[8] = second compound 0.316 µM, first compound 0.01 µM
[9] = second compound 0.316 µM, first compound 0.0316 µM
[10] = second compound 0.316 µM, first compound 0.1 µM
[11] = second compound 0.316 µM, first compound 0.316 µM
[12] = second compound 0.316 µM, first compound 1 µM
[13] = second compound 1 µM, first compound 0.00316 µM
[14] = second compound 1 µM, first compound 0.01 µM
[15] = second compound 1 µM, first compound 0.0316 µM
[16] = second compound 1 µM, first compound 0.1 µM
[17] = second compound 1 µM, first compound 0.316 µM
[18] = second compound 1 µM, first compound 1 µM
[19] = second compound 3.16 µM, first compound 0.00316 µM
[20] = second compound 3.16 µM, first compound 0.01 µM
[21] = second compound 3.16 µM, first compound 0.0316 µM
[22] = second compound 3.16 µM, first compound 0.1 µM
[23] = second compound 3.16 µM, first compound 0.316 µM
[24] = second compound 3.16 µM, first compound 1 µM
[25] = second compound 10 µM, first compound 0.00316 µM
[26] = second compound 10 µM, first compound 0.01 µM
[27] = second compound 10 µM, first compound 0.0316 µM
[28] = second compound 10 µM, first compound 0.1 µM
[29] = second compound 10 µM, first compound 0.316 µM
[30] = second compound 10 µM, first compound 1 µM

Structure (SMILES) | IC50 (second compound 0.1 µM) | IC50 (second compound 0.316 µM) | IC50 (second compound 1 µM) | IC50 (second compound 3.16 µM) | IC50 (second compound 10 µM) | viability, T/C [1] | viability, T/C [2] | viability, T/C [3] | viability, T/C [4] | viability, T/C [5] | viability, T/C [6] | viability, T/C [7] | viability, T/C [9] | viability, T/C [10] | viability, T/C [15] | viability, T/C [16] | viability, T/C [21] | viability, T/C [22] | viability, T/C [27] | viability, T/C [28] | other results
Nc1ncn(C2CC(O)C(CO)O2)c(=O)n1 (stereo not given) + NC1CC1c1ccc(-c2cccc(O)c2)cc1 | > 1000 nM | 560 nM | 183 nM | 251 nM | < 3.16 nM | 74.5% | 75.8% | 76.2% | 66.8% | 55% | 56% | 70.4% | 61.4% | 51.8% | 57.3% | 50.4% | 60.6% | 53.3% | 43.9% | 41.5% | viability, T/C [8]: 63.5%; viability, T/C [11]: 50.9%; viability, T/C [12]: 49.6%; viability, T/C [13]: 60.5%; viability, T/C [14]: 58.4%; viability, T/C [17]: 47.7%; viability, T/C [18]: 45%; viability, T/C [19]: 70.2%; viability, T/C [20]: 63.4%; viability, T/C [23]: 49.6%; viability, T/C [24]: 43.7%; viability, T/C [25]: 49.7%; viability, T/C [26]: 45.3%; viability, T/C [29]: 40.3%; viability, T/C [30]: 37.1%
CC1(C)CCC(CN2CCN(c3ccc(C(=O)NS(=O)(=O)c4ccc(NCC5CCOCC5)c([N+](=O)[O-])c4)c(Oc4cnc5[nH]ccc5c4)c3)CC2)=C(c2ccc(Cl)cc2)C1 + NC1CCC(NC2CC2c2ccccc2)CC1 | 6760 nM | 6450 nM | 5380 nM | 3860 nM | 735 nM | – | – | 100% | 98.6% | 100% | 102% | – | 102% | 103% | 98.9% | 95.6% | 81.1% | 77.3% | 48.6% | 60.2% | viability, T/C (second compound 0.1 µM, first compound 3.16 µM): 92.6%; viability, T/C (second compound 0.1 µM, first compound 10 µM): 27.8%; viability, T/C [11]: 97.3%; viability, T/C [12]: 97.3%; viability, T/C (second compound 0.316 µM, first compound 3.16 µM): 86%; viability, T/C (second compound 0.316 µM, first compound 10 µM): 27.6%; viability, T/C [17]: 99.4%; viability, T/C [18]: 95.3%; viability, T/C (second compound 1 µM, first compound 3.16 µM): 72.8%; viability, T/C (second compound 1 µM, first compound 10 µM): 23.5%; viability, T/C [23]: 74.8%; viability, T/C [24]: 75%; viability, T/C (second compound 3.16 µM, first compound 3.16 µM): 56.2%; viability, T/C (second compound 3.16 µM, first compound 10 µM): 19.9%; viability, T/C [29]: 53.8%; viability, T/C [30]: 47.7%; viability, T/C (second compound 10 µM, first compound 3.16 µM): 36.2%; viability, T/C (second compound 10 µM, first compound 10 µM): 18.6%
CC(C)CC(NC(=O)CNC(=O)c1cc(Cl)ccc1Cl)B1OC(=O)CC(CC(=O)O)(C(=O)O)O1 (stereo not given) + NC1CCC(NC2CC2c2ccccc2)CC1 | 7.26 nM | 7.08 nM | 7.23 nM | 5.75 nM | 3.98 nM | 85% | 36.5% | 5.81% | 0.78% | – | – | 81.8% | 5.22% | 0.88% | 4.74% | 0.52% | 3.87% | 0.63% | 2.19% | 0.65% | viability, T/C (second compound 0.1 µM, first compound 0.000316 µM): 105%; viability, T/C (second compound 0.1 µM, first compound 0.001 µM): 110%; viability, T/C (second compound 0.316 µM, first compound 0.000316 µM): 98.9%; viability, T/C (second compound 0.316 µM, first compound 0.001 µM): 107%; viability, T/C [8]: 36.4%; viability, T/C (second compound 1 µM, first compound 0.000316 µM): 102%; viability, T/C (second compound 1 µM, first compound 0.001 µM): 107%; viability, T/C [13]: 85.8%; viability, T/C [14]: 36%; viability, T/C (second compound 3.16 µM, first compound 0.000316 µM): 83.8%; viability, T/C (second compound 3.16 µM, first compound 0.001 µM): 86.7%; viability, T/C [19]: 69.4%; viability, T/C [20]: 31.7%; viability, T/C (second compound 10 µM, first compound 0.000316 µM): 57.6%; viability, T/C (second compound 10 µM, first compound 0.001 µM): 61.2%; viability, T/C [25]: 55.8%; viability, T/C [26]: 25.7%
